Reference: US9567319B2, “Compound having higher inhibitory activity on protein kinase G and preparation method thereof” (Jenkem Technology Co., Ltd., (Tianjin), priority 2014, dated 2017)
Values joined by “and” are separate entries in the source; they are usually repeats but may differ in a detail not shown here. Equal entries are not always repeated.

Columns and labels:
[1] = test system: hyperalgesia induced by Freund's complete adjuvant (CFA) in rats; test: Von Frey filament test, CFA induced hyperalgesia in rats; format: in vivo, SD rats; conditions: for Von Frey Filament Test Values (Mean ± SD), Baseline: pretreatment, n=8; for Von Frey Filament Test Values (Mean ± SD), 15 min: 15 min post treatment; for Von Frey Filament Test Values (Mean ± SD), 2 h: 2 h post treatment
Protocol: Compounds 46 and JK-02A were prepared according to the disclosure of US patent application No. US2008/0176920, and compound JK-02H was prepared according to Example 1. A repeat efficacy study was carried out on the same batch of animals with a single-dose treatment followed by a washing-out period. The 14 days in life studies included two stages: a single low dose treatment assessment on the 7th day and then a single high dose treatment test on the 14th day after CFA injection. On the 7th day after CFA injection, the rats were randomly assigned to respective groups using a computer generated randomization procedure based on the body weight and the baseline values of Von Frey and weight bearing test. Animals received corresponding single dose treatments (vehicle and 3 test articles) on the 7th and 14th days after CFA injection, respectively, and the effect of the test compounds were evaluated. Hyperalgesia of all the study animals was assessed following a single low dose treatment with the test articles on day 7, while a single high dose effect of the test article was evaluated on day 14. The mechanical hyperalgesia and weight bearing were measured on day 7 and day 14 after CFA injection, followed by administration of control or test articles. Von Frey filaments and weight bearing were measured on all the study animals at three time points on day 7, and four time points on day 14. An extra time point assessment was conducted on day 14, considering the strong analgesic effect of the test articles at a higher dose noticed during the test at the 3th time point. Mechanical hyperalgesia of the left hind paw was measured before and during the course of study in all animal groups by determining withdrawal thresholds to Von Frey filament (Bioseb, France). Increasing tensile force perpendicular to the plantar surface of the paw was applied to the filaments. The threshold for paw withdrawal was calculated by taking the average of 2-3 repeated stimuli (unit in “g”). On day 7, Von Frey Filament measurements were conducted three times, at the time points of pretreatment, 15 min and 2 hours post treatment. Following a one-week washing out period, on day 14 after CFA injection, Von Frey Filament tests were performed again four times post a single high dose administration. Rats treated with vehicle or high dose test articles were measured at the time points of pretreatment, 15 min, 2 and 5 hours post treatment. All the results were expressed as mean±SD. One-way analysis of variance (ANOVA) followed by a multiple comparison test were applied among the groups, p<0.05 accepted as significant.

[2] = test system: hyperalgesia induced by Freund's complete adjuvant (CFA) in rats; test: Weight bearing test, CFA induced hyperalgesia in rats; format: in vivo, SD rats; conditions: for Weight Bearing Test Values (Mean ± SD), Baseline: pretreatment, n=8; for Weight Bearing Test Values (Mean ± SD), 15 min: 15 min post treatment; for Weight Bearing Test Values (Mean ± SD), 2 h: 2 h post treatment
Protocol: Compounds 46 and JK-02A were prepared according to the disclosure of US patent application No. US2008/0176920, and compound JK-02H was prepared according to Example 1. A repeat efficacy study was carried out on the same batch of animals with a single-dose treatment followed by a washing-out period. The 14 days in life studies included two stages: a single low dose treatment assessment on the 7th day and then a single high dose treatment test on the 14th day after CFA injection. On the 7th day after CFA injection, the rats were randomly assigned to respective groups using a computer generated randomization procedure based on the body weight and the baseline values of Von Frey and weight bearing test. Animals received corresponding single dose treatments (vehicle and 3 test articles) on the 7th and 14th days after CFA injection, respectively, and the effect of the test compounds were evaluated. Hyperalgesia of all the study animals was assessed following a single low dose treatment with the test articles on day 7, while a single high dose effect of the test article was evaluated on day 14. The mechanical hyperalgesia and weight bearing were measured on day 7 and day 14 after CFA injection, followed by administration of control or test articles. Von Frey filaments and weight bearing were measured on all the study animals at three time points on day 7, and four time points on day 14. An extra time point assessment was conducted on day 14, considering the strong analgesic effect of the test articles at a higher dose noticed during the test at the 3th time point. Rats distributed body weight unequally on the CFA-injected and contra lateral paws, which was measured by a weight balance changing instrument (Bio-medical, USA). The animals were tested in a box constructed to register the weight load exerted by the hind paws by means of force plates inserted in the floor. The mean weight bearing (unit in “g”) between the CFA-injected paw and the contra-lateral paw was determined in 10 seconds. The weight bearing test of all study animals was conducted at the same time intervals as the mechanical hyperalgesia test. All the results were expressed as mean±SD. One-way analysis of variance (ANOVA) followed by a multiple comparison test were applied among the groups, p<0.05 accepted as significant.

[3] = day 7 after CFA, low dose groups (46 and JK-02A 10 mg/kg, JK-02H 5 mg/kg)
[4] = day 7 after CFA, single low dose i.v. (46 and JK-02A 10 mg/kg, JK-02H 5 mg/kg)
[5] = day 14 after CFA, high dose groups (46 and JK-02A 40 mg/kg, JK-02H 20 mg/kg)
[6] = day 14 after CFA, single high dose i.v. (46 and JK-02A 40 mg/kg, JK-02H 20 mg/kg)
[7] = day 14 after CFA, single high dose i.v. (46 and JK-02A 40 mg/kg, JK-02H 20 mg/kg), 5 h post treatment
[8] = individual animal, high dose i.v. (46 and JK-02A 40 mg/kg, JK-02H 20 mg/kg), two repeated stimuli
[9] = individual animal, low dose i.v. (46 and JK-02A 10 mg/kg, JK-02H 5 mg/kg), two repeated stimuli
[10] = individual animal, high dose i.v. (46 and JK-02A 40 mg/kg, JK-02H 20 mg/kg)
[11] = individual animal, low dose i.v. (46 and JK-02A 10 mg/kg, JK-02H 5 mg/kg)

Structure (SMILES): CCCOc1ccc(F)c(F)c1C(=O)c1ccc(C(=O)N[C@@H]2CNC[C@H]2NC(=O)c2ccc3cn[nH]c3c2)cc1 [JK-02A]
- Von Frey Filament Test Values (Mean ± SD), Baseline [1, 3]: 6.89 ± 0.99 g
- Von Frey Filament Test Values (Mean ± SD), 15 min [1, 4]: 7.64 ± 1.83 g
- Von Frey Filament Test Values (Mean ± SD), 2 h [1, 4]: 7.43 ± 1.62 g
- Von Frey Filament Test Values (Mean ± SD), Baseline [1, 5]: 6.73 ± 0.74 g
- Von Frey Filament Test Values (Mean ± SD), 15 min [1, 6]: 8.63 ± 1.62 g
- Von Frey Filament Test Values (Mean ± SD), 2 h [1, 6]: 8.82 ± 1.20 g
- Von Frey Filament Test Values (Mean ± SD), 5 h [1, 7]: 8.45 ± 2.18 g
- Von Frey Values of Individual Animal, Day 14, 15 min [1, 8]: 9.3 g and 8.9 g and 6.5 g and 7.4 g (2×) and 10.9 g and 9.5 g (2×) and 6.1 g and 12.5 g and 10.6 g and 7.6 g and 9.2 g and 8.5 g and 10.7 g and 9.1 g
- Von Frey Values of Individual Animal, Day 14, 2 h [1, 8]: 8.7 g (2×) and 9.8 g and 9.5 g and 9.3 g (2×) and 9.4 g and 9.1 g and 8.5 g and 9.2 g and 8.2 g and 8.9 g and 9.6 g and 10.6 g and 6.2 g and 5.8 g
- Von Frey Values of Individual Animal, Day 14, 5 h [1, 8]: 11.9 g and 13.2 g and 6.7 g and 5.2 g and 8.3 g and 9.2 g and 9.7 g and 9.8 g and 8.8 g and 9.9 g and 6.4 g and 5.7 g and 7.3 g and 8.9 g and 7.4 g and 6.8 g
- Von Frey Values of Individual Animal, Day 7, 15 min [1, 9]: 9.1 g (3×) and 8.8 g and 6.3 g and 5.6 g (2×) and 10.2 g and 8.9 g and 10.0 g and 9.5 g (2×) and 5.7 g and 7.3 g and 6.0 g and 9.4 g
- Von Frey Values of Individual Animal, Day 7, 2 h [1, 9]: 6.6 g and 5.6 g and 7.0 g (3×) and 8.3 g and 7.4 g and 6.0 g and 8.9 g and 10.5 g and 10.4 g and 6.5 g and 7.1 g and 7.3 g and 5.1 g and 4.9 g
- First Baseline, Von Frey, individual animal ([1]; individual animal, pretreatment day 7, two repeated stimuli per animal): 5.1 g and 5.9 g and 5.8 g and 6.5 g and 6.9 g and 6.2 g and 5.2 g and 6.8 g (2×) and 7.8 g and 7.3 g and 7.6 g (2×) and 7.9 g and 8.2 g and 8.6 g
- Second Baseline, Von Frey, individual animal ([1]; individual animal, pretreatment day 14 after washing-out, two repeated stimuli per animal): 7.1 g (2×) and 5.3 g and 5.2 g and 7.4 g and 7.3 g and 6.0 g and 7.6 g and 6.4 g (2×) and 6.6 g and 7.7 g and 7.5 g (2×) and 5.8 g and 6.7 g
- Weight Bearing Test Values (Mean ± SD), Baseline [2, 3]: 48.18 ± 5.05 g
- Weight Bearing Test Values (Mean ± SD), 15 min [2, 4]: 38.11 ± 11.23 g
- Weight Bearing Test Values (Mean ± SD), 2 h [2, 4]: 36.24 ± 9.72 g
- Weight Bearing Test Values (Mean ± SD), Baseline [2, 5]: 49.54 ± 7.39 g
- Weight Bearing Test Values (Mean ± SD), 15 min [2, 6]: 28.43 ± 8.83 g
- Weight Bearing Test Values (Mean ± SD), 2 h [2, 6]: 33.36 ± 8.92 g
- Weight Bearing Test Values (Mean ± SD), 5 h [2, 7]: 42.69 ± 7.52 g
- Weight Bearing Values of Individual Animal, Day 14, 15 min, Left [2, 10]: 58.9 g and 57.8 g and 49.6 g and 53.7 g and 52.7 g and 50.9 g and 67.1 g and 72.2 g
- Weight Bearing Values of Individual Animal, Day 14, 15 min, Right [2, 10]: 77.1 g and 95.3 g and 77.6 g and 90.1 g and 80.4 g and 80.1 g and 104.0 g and 85.7 g
- Weight Bearing Values of Individual Animal, Day 14, 15 min, Δ [2, 10]: 18.2 g and 37.5 g and 28.0 g and 36.4 g and 27.7 g and 29.2 g and 36.9 g and 13.5 g
- Weight Bearing Values of Individual Animal, Day 14, 2 h, Left [2, 10]: 66.8 g and 71.9 g and 48.9 g and 60.7 g and 50.1 g and 54.6 g and 44.8 g and 72.2 g
- Weight Bearing Values of Individual Animal, Day 14, 2 h, Right [2, 10]: 97.0 g and 106.5 g and 97.2 g and 81.1 g and 79.8 g and 91.1 g and 86.5 g and 97.7 g
- Weight Bearing Values of Individual Animal, Day 14, 2 h, Δ [2, 10]: 30.2 g and 34.6 g and 48.3 g and 20.4 g and 29.7 g and 36.5 g and 41.7 g and 25.5 g
- Weight Bearing Values of Individual Animal, Day 14, 5 h, Left [2, 10]: 38.0 g and 62.9 g and 55.0 g and 45.7 g and 52.7 g and 39.7 g and 54.9 g and 68.2 g
- Weight Bearing Values of Individual Animal, Day 14, 5 h, Right [2, 10]: 77.2 g and 99.3 g and 93.8 g and 90.7 g and 92.0 g and 99.9 g and 95.3 g and 110.4 g
- Weight Bearing Values of Individual Animal, Day 14, 5 h, Δ [2, 10]: 39.2 g and 36.4 g and 38.8 g and 45.0 g and 39.3 g and 60.2 g and 40.4 g and 42.2 g
- Weight Bearing Values of Individual Animal, Day 7, 15 min, Left [2, 11]: 36.6 g and 56.4 g and 47.8 g and 37.9 g and 36.9 g and 50.5 g and 25.4 g and 65.6 g
- Weight Bearing Values of Individual Animal, Day 7, 15 min, Right [2, 11]: 83.8 g and 79.1 g and 74.1 g and 89.5 g and 62.9 g and 93.7 g and 69.1 g and 109.8 g
- Weight Bearing Values of Individual Animal, Day 7, 15 min, Δ [2, 11]: 47.2 g and 22.7 g and 26.3 g and 51.6 g and 26.0 g and 43.2 g and 43.7 g and 44.2 g
- Weight Bearing Values of Individual Animal, Day 7, 2 h, Left [2, 11]: 68.5 g and 68.0 g and 31.5 g and 39.9 g and 43.9 g and 37.3 g and 52.3 g and 62.2 g
- Weight Bearing Values of Individual Animal, Day 7, 2 h, Right [2, 11]: 99.4 g and 85.5 g and 80.7 g and 75.7 g and 77.3 g and 73.4 g and 95.8 g and 105.7 g
- Weight Bearing Values of Individual Animal, Day 7, 2 h, Δ [2, 11]: 30.9 g and 17.5 g and 49.2 g and 35.8 g and 33.4 g and 36.1 g and 43.5 g (2×)
- First Baseline, Balance Left, individual animal ([2]; individual animal, pretreatment day 7, left (CFA-injected) hind paw): 54.2 g and 57.2 g and 45.5 g and 64.4 g and 45.6 g and 12.0 g and 58.0 g and 64.0 g
- First Baseline, Balance Right, individual animal ([2]; individual animal, pretreatment day 7, right hind paw): 103.7 g and 98.1 g and 93.0 g and 117.4 g and 90.5 g and 66.3 g and 100.6 g and 116.7 g
- First Baseline, Balance Δ, individual animal ([2]; individual animal, pretreatment day 7, right minus left): 49.5 g and 40.9 g and 47.5 g and 53.0 g and 44.9 g and 54.3 g and 42.6 g and 52.7 g
- Second Baseline, Balance Left, individual animal ([2]; individual animal, pretreatment day 14, left (CFA-injected) hind paw): 32.1 g and 47.3 g and 30.4 g and 45.9 g and 50.1 g and 39.6 g and 33.5 g and 57.1 g
- Second Baseline, Balance Right, individual animal ([2]; individual animal, pretreatment day 14, right hind paw): 89.3 g and 90.0 g and 81.0 g and 87.2 g and 92.4 g and 90.4 g and 94.1 g and 97.9 g
- Second Baseline, Balance Δ, individual animal ([2]; individual animal, pretreatment day 14, right minus left): 57.2 g and 42.7 g and 50.6 g and 41.3 g and 52.3 g and 50.8 g and 60.6 g and 40.8 g
